Starred links: 1 amine or outer side, 2 acyl side, 3 side chain; linkers in the order of their positions; H or OH if unused. Residues, ends and D or L forms follow the SMILES beside them. Groups on a side chain read outwards from the residue. *: point of attachment. C20 diacid = O=C(O)CCCCCCCCCCCCCCCCCCC(=O)*; γGlu = O=C(O)[C@H](CCC(=O)[*:2])N[*:1]; AEEA = NCCOCCOCC(=O)O
What was measured:
hCRHR1 = molecular target: T1, hCRHR1 (Homo sapiens, UniProt P34998); assay: HTRF cAMP assay, determination of hCRHR1 potency (peptide libraries 5 conc., purified peptides 11 conc.); format: cell-based; conditions: purified peptides; CHO-K1 cells stably expressing hCRHR1, cAMP HTRF; read-out: hCRHR1 EC50
T1 sequence (P34998 24-415): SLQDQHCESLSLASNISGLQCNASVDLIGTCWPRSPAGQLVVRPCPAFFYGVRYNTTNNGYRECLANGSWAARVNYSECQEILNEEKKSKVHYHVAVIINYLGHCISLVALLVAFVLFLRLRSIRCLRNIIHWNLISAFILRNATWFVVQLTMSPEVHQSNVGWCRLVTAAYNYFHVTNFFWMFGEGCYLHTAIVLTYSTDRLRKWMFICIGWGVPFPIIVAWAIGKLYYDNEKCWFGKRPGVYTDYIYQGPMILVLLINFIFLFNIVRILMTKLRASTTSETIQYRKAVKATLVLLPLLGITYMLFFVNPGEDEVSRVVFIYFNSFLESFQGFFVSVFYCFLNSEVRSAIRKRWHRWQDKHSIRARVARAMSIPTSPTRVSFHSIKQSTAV
In short: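 CHO-K1 cells stably expressing human CRHR1, thawed from frozen stocks just before use, were stimulated in suspension with agonist peptides. cAMP was measured by HTRF competitive immunoassay (cryptate anti-cAMP antibody vs d2-cAMP).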

[1] = Chemical stability of purified peptides (RP-UHPLC main peak purity loss); format: physicochemical; conditions: pH 7.5, 40°C; for Chemical stability at pH 7.5 after 28 days at 40°C (% degradation): second value of cell; for Chemical stability at pH 7.5 after 14 days at 40°C (% degradation): first value of cell
Description: Chemical stability was tested at a concentration of approximately of 1.0 mg/ml peptide in the following vehicles: 50 mM phosphate buffer pH 7.5. Dissolved samples were incubated for at least 2 h at room temperature on a rocking table. The main peak purity at time zero (T0) was determined using reversed phase chromatography. The samples were incubated at 40°C for 14 days (T14) and 28 days (T28). The samples were analyzed with reversed phase chromatography and size exclusion chromatography.
Reversed Phase chromatography was performed on a Thermo Dionex Ultimate UHPLC system with UV detection at 215 nm) and equipped with a Kinetex column (1.7 µm, C8, 100 Å, 150 x 2.1 mm (00F-4499-AN)). Analysis was performed by gradient elution with buffer A (0.1% TFA in 95:5 H2O:acetonitrile) and buffer B (0.1% TFA in 5:95 H2O: acetonitrile) at a column temperature of 50 °C (gradient used 25-55%B over 40 min. Flowrate was 0.5 mL/min. The main peak purity was determined from the integrated chromatogram as the area under the main peak relative to the total peak area. The purity loss was calculated as the difference between the T0 and T14 time point and/or as the difference between the T0 and T28 time point.
The chemical stability of selected peptides was evaluated at varying pH's at 40° C over 28 days. Samples were prepared and analysed as described in procedure with the addition of pH adjusting samples to the targets indicated below. As a comparator,r commercially available semaglutide drug product (Ozempic®, Novo Nordisk) was included in the sample set.

hCRHR2 = molecular target: T2, hCRHR2 (Homo sapiens, UniProt Q13324); assay: HTRF cAMP assay, determination of hCRHR2 potency (peptide libraries 5 conc., purified peptides 11 conc.); format: cell-based; conditions: for Selectivity ratio (hCRHR1/ hCRHR2): hCRHR1-EC50/hCRHR2-EC50; for EC50: purified peptides, CHO-K1 cells stably expressing hCRHR2, cAMP HTRF, read-out: hCRHR2 EC50
T2 sequence (Q13324 1-411): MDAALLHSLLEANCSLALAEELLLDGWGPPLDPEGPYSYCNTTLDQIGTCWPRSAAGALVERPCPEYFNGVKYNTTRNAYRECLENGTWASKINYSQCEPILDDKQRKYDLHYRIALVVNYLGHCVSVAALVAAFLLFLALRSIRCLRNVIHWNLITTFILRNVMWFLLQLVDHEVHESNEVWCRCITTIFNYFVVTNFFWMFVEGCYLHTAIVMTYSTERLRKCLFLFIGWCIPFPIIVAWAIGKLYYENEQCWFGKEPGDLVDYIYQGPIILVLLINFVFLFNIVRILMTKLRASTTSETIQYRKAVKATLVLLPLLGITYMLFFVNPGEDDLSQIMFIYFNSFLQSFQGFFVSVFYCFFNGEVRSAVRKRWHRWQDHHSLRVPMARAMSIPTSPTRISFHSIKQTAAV
In short: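 Agonist peptides are added to suspended, freshly thawed CHO-K1 cells that stably carry the human receptor. Intracellular cAMP competes with d2-cAMP for a cryptate-tagged antibody, lowering the FRET signal. A variable-slope sigmoid curve is fitted to obtain EC50.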

[2] = pH 7.5
[3] = Thioflavin T fibril formation assay of purified peptides; format: physicochemical; conditions: pH 7.5, ThT assay
Description: Thioflavin T fibril formation assay: Peptides were dissolved as 267 µM in 50 mM phosphate buffer pH 7.5 for 2 h at room temperature on a rocking table. The samples were then divided into three replicates of 80 µl/well and mixed with 2 µl/well Thioflavin T (ThT)to a final concentration of 4 µM ThT in a black 384 well microplate with a clear bottom (Greiner #781096). The plate was inserted in a CLARIOstar Plus microplate reader (BMG Labtech) and fibril formation was measured as an increase in fluorescence emission at 480 nm (excitation at 450 nm) during 96 h at 40°C with cycles of 5 min rest and 5 min linearshaking at700 rpm.
Compounds were dissolved to 200 µM (ca 1.0 mg/ml) in 50 mM phosphate buffer with preparation and ThT assay performed as described in the "General procedure for determination of fibril formation of peptides." above. Furthermore, samples were adjusted to pH values as indicated below. Additional co-formulations of compounds with semaglutide were prepared by dissolving compounds to 200 µM in commercially available semaglutide drug product (Ozempic®); these co-formulations were adjusted to pH 7.4.

CC[C@H](C)[C@H](NC(=O)[C@H](CCC(=O)O)NC(=O)[C@H](C)NC(=O)[C@H](CC(N)=O)NC(=O)[C@@H](NC(=O)[C@H](CCCCNC(=O)COCCOCCNC(=O)COCCOCCNC(=O)CC[C@H](NC(=O)CC[C@H](NC(=O)CCCCCCCCCCCCCCCCCCC(=O)O)C(=O)O)C(=O)O)NC(=O)[C@H](C)NC(=O)[C@H](CCC(N)=O)NC(=O)[C@H](CCC(=O)O)NC(=O)[C@H](CCCNC(=N)N)NC(=O)[C@H](C)NC(=O)[C@H](C)NC(=O)[C@H](CCCNC(=N)N)NC(=O)[C@H](C)NC(=O)[C@H](CCCNC(=N)N)NC(=O)[C@H](C)NC(=O)[C@H](CCC(N)=O)NC(=O)[C@H](CCC(=O)O)NC(=O)[C@H](CC(C)C)NC(=O)[C@H](CC(C)C)NC(=O)[C@@H](NC(=O)[C@H](CCC(N)=O)NC(=O)[C@H](CC(C)C)NC(=O)[C@H](CC(C)C)NC(=O)CNC(=O)[C@@H](NC(=O)[C@@H]1CCCN1C(=O)[C@@H](NC(=O)[C@H](CC(=O)O)NC(=O)[C@H](CC(C)C)NC(=O)[C@H](CO)NC(=O)[C@H](CC(C)C)NC(=O)[C@@H](NC(=O)[C@@H]1CCCN1)C(C)C)C(C)C)[C@@H](C)CC)[C@@H](C)CC)[C@@H](C)O)C(=O)N[C@@H](CC(C)C)C(=O)N[C@@H](C)C(=O)N[C@@H](CCC(=O)O)C(=O)N[C@H](C(N)=O)C(C)C [SEQ ID NO: 7] (H-PVLSLDVPIGLLQILLEQARARAAREQAK([AEEA-AEEA-γGlu-γGlu-C20 diacid])TNAEILAEV-NH2)
EC50 (hCRHR1): > 5000 nM | Chemical stability at pH 7.5 after 28 days at 40°C (% degradation) [1]: -23% | Selectivity ratio (hCRHR1/ hCRHR2) (hCRHR2): >2000 | EC50 (hCRHR2): 2.5 nM | Solubility pH 7.5, target conc. =10 mg/mL (measured mg/mL) [2]: 9.8 mg/mL | Fibrillation (pH 7.5) [3]: No

CC[C@H](C)[C@H](N)C(=O)N[C@H](C(=O)N[C@@H](CC(C)C)C(=O)N[C@@H](CO)C(=O)N[C@@H](CC(C)C)C(=O)N[C@@H](CC(=O)O)C(=O)N[C@H](C(=O)N1CCC[C@H]1C(=O)N[C@H](C(=O)NCC(=O)N[C@@H](CC(C)C)C(=O)N[C@@H](CC(C)C)C(=O)N[C@@H](CCC(N)=O)C(=O)N[C@H](C(=O)N[C@@H](CC(C)C)C(=O)N[C@@H](CC(C)C)C(=O)N[C@@H](CCC(=O)O)C(=O)N[C@@H](CCC(N)=O)C(=O)N[C@@H](C)C(=O)N[C@@H](CCCNC(=N)N)C(=O)N[C@@H](C)C(=O)N[C@@H](CCCNC(=N)N)C(=O)N[C@@H](C)C(=O)N[C@@H](C)C(=O)N[C@@H](CCCNC(=N)N)C(=O)N[C@@H](CCC(=O)O)C(=O)N[C@@H](CCC(N)=O)C(=O)N[C@@H](C)C(=O)N[C@@H](CCCCNC(=O)COCCOCCNC(=O)COCCOCCNC(=O)CC[C@H](NC(=O)CC[C@H](NC(=O)CCCCCCCCCCCCCCCCCCC(=O)O)C(=O)O)C(=O)O)C(=O)N[C@H](C(=O)N[C@@H](CC(N)=O)C(=O)N[C@@H](CC(C)C)C(=O)N[C@@H](CCC(=O)O)C(=O)N[C@H](C(=O)N[C@@H](CC(C)C)C(=O)N[C@@H](C)C(=O)N[C@@H](CCC(=O)O)C(=O)N[C@H](C(N)=O)C(C)C)[C@@H](C)CC)[C@@H](C)O)[C@@H](C)CC)[C@@H](C)CC)C(C)C)C(C)C [SEQ ID NO: 12] (H-IVLSLDVPIGLLQILLEQARARAAREQAK([AEEA-AEEA-γGlu-γGlu-C20 diacid])TNLEILAEV-NH2)
EC50 (hCRHR1): > 5000 nM | Chemical stability at pH 7.5 after 14 days at 40°C (% degradation) [1]: -0.6% | Chemical stability at pH 7.5 after 28 days at 40°C (% degradation) [1]: -1.2% | Selectivity ratio (hCRHR1/ hCRHR2) (hCRHR2): >1136 | EC50 (hCRHR2): 4.4 nM | Solubility pH 7.5, target conc. =10 mg/mL (measured mg/mL) [2]: 9.1 mg/mL | Fibrillation (pH 7.5) [3]: No

CC[C@H](C)[C@H](N)C(=O)N[C@H](C(=O)N[C@@H](CC(C)C)C(=O)N[C@@H](CO)C(=O)N[C@@H](CC(C)C)C(=O)N[C@@H](CC(=O)O)C(=O)N[C@H](C(=O)N1CCC[C@H]1C(=O)N[C@H](C(=O)NCC(=O)N[C@@H](CC(C)C)C(=O)N[C@@H](CC(C)C)C(=O)N[C@@H](CCC(N)=O)C(=O)N[C@H](C(=O)N[C@@H](CC(C)C)C(=O)N[C@@H](CC(C)C)C(=O)N[C@@H](CCC(=O)O)C(=O)N[C@@H](CCC(N)=O)C(=O)N[C@@H](C)C(=O)N[C@@H](CCCNC(=N)N)C(=O)N[C@@H](C)C(=O)N[C@@H](CCCNC(=N)N)C(=O)N[C@@H](C)C(=O)N[C@@H](C)C(=O)N[C@@H](CCCNC(=N)N)C(=O)N[C@@H](CCC(=O)O)C(=O)N[C@@H](CCC(N)=O)C(=O)N[C@@H](C)C(=O)N[C@@H](CCCCNC(=O)COCCOCCNC(=O)COCCOCCNC(=O)CC[C@H](NC(=O)CC[C@H](NC(=O)CCCCCCCCCCCCCCCCCCC(=O)O)C(=O)O)C(=O)O)C(=O)N[C@H](C(=O)N[C@@H](CC(N)=O)C(=O)N[C@H](C(=O)N[C@@H](CCC(=O)O)C(=O)N[C@H](C(=O)N[C@@H](CC(C)C)C(=O)N[C@@H](C)C(=O)N[C@@H](CCC(=O)O)C(=O)N[C@H](C(N)=O)C(C)C)[C@@H](C)CC)[C@@H](C)CC)[C@@H](C)O)[C@@H](C)CC)[C@@H](C)CC)C(C)C)C(C)C [SEQ ID NO: 13] (H-IVLSLDVPIGLLQILLEQARARAAREQAK([AEEA-AEEA-γGlu-γGlu-C20 diacid])TNIEILAEV-NH2)
EC50 (hCRHR1): > 5000 nM | Chemical stability at pH 7.5 after 14 days at 40°C (% degradation) [1]: -0.3% | Chemical stability at pH 7.5 after 28 days at 40°C (% degradation) [1]: -1.6% | Selectivity ratio (hCRHR1/ hCRHR2) (hCRHR2): >926 | EC50 (hCRHR2): 5.4 nM | Solubility pH 7.5, target conc. =10 mg/mL (measured mg/mL) [2]: 8.9 mg/mL | Fibrillation (pH 7.5) [3]: No

Reference: patent publication EP4810052A2, “HCRHR2 SELECTIVE POLYPEPTIDES” (Gubra A/S, priority 2023, dated 2026)
